{"source": "patent US10513689B2", "about": "“Culture media for multipotent stem cells” (Hope Biosciences LLC, priority 2016, dated 2019)", "origin": "cited, not measured here", "tested_on": "MSCs", "details": "Tamama et al., 2010"}
{"substance": "EGF: Epidermal growth factor, mitogen of MSCs", "values": [{"measurement": "increase in the number of colony-forming units", "result": 25, "unit": "%"}]}
